The test relates to Plasmodium berghei. As to the kind of experiment: Luciferase/luciferin-expressing antifolate-resistant parasites were used to infect a culture of HepG2 cells that were pre-incubated with compounds. Infected hepatocytes emit light due to the luciferase reaction. Assay results are presented as the percent inhibition of light emission compared to control. […]. Conditions: sporozoite; for IC50: read-out: LUCIFERASE INFECTION ASSAY - IC50; for IC90: read-out: LUCIFERASE INFECTION ASSAY - IC90. Type of test: functional.

Bounds are passed on as bounds.

Turning to `NC(=O)C1CCN(C(=O)CCn2c(=O)oc3ccccc32)CC1`, the IC50 is over 10 µM and the concentration for an effect of 90% (IC90) was over 10 µM.
On to `O=C(Nc1ccc(-c2nc3ccccc3[nH]2)cc1)C1CCCO1` (centres undefined), for which the IC50 was over 10 µM and the 90% effect concentration (IC90) is over 10 µM.
With `Cc1ccc(OCC(O)CN2CCc3ccccc3C2)c(C)c1` (centres undefined), the half-maximal inhibitory concentration (IC50) was over 9.49 µM and the IC90 is over 9.49 µM.
With `O=C(C1CCCN(C2=NS(=O)(=O)c3ccccc32)C1)N1CCOCC1` (centres undefined), the half-maximal inhibitory concentration (IC50) was over 10 µM and the IC90 is over 10 µM.
`Cc1ccc(C)c(Sc2ccc(S(=O)(=O)NCCN(C)C)cc2)c1`: the concentration for half-maximal inhibition (IC50) is over 10 µM and the IC90 is over 10 µM.
Consider `Cc1cc(C(=O)C(C)OC(=O)C2=COCCO2)c(C)n1-c1ccc(Cl)cc1` (centres undefined), for which the half-maximal inhibitory concentration (IC50) was found to be 6.48 µM and the concentration for an effect of 90% (IC90) is over 10 µM.
As for `COC(=O)c1sc2[nH]c(COC(=O)c3ccccc3)nc(=O)c2c1C`, the concentration for half-maximal inhibition (IC50) was over 10 µM and the IC90 is over 10 µM.
With `CC(=O)c1c(C)[nH]c(C(=O)Nc2ccc3ccccc3n2)c1C`, the IC50 came to 0.934 µM and the 90% effect concentration (IC90) amounted to 1.16 µM.
The matching figures for `Cc1nc(SCc2csc(-c3ccccc3)n2)c(C#N)c(C)c1C`: over 10 µM and over 10 µM.
The matching figures for `CC(=O)c1c(C)[nH]c(C(=O)COC(=O)c2cnn(-c3ccccc3)c2)c1C`: over 10 µM and over 10 µM.
The like results for `O=C(NCCOc1ccc(Cl)cc1)c1ccc(=O)n(Cc2ccccc2)n1` were, in that order, over 10 µM and over 10 µM.
Regarding `CCOC(=O)NC(=O)COC(=O)CCc1ccc(OC)cc1`, the half-maximal inhibitory concentration (IC50) is over 10 µM and the IC90 was over 10 µM.
In the case of `Cc1ccc(Sc2ncccc2C(=O)Nc2nc3c(s2)CCCC3)cc1`, the IC50 stood at 3.38 µM and the 90% effect concentration (IC90) was 3.95 µM.
The like results for `O=C(Nc1ccccc1C(=O)OCCC(F)(F)F)c1ccccc1` were, in that order, over 10 µM and over 10 µM.
Consider `CC(C)c1ccccc1N(C(=O)C1CCC1)c1nc2ccccc2s1`, for which the concentration for half-maximal inhibition (IC50) was over 10 µM and the IC90 was over 10 µM.
With `Cn1nc(C(=O)NCC(c2cccs2)N2CCCC2)c2ccccc2c1=O` (centres undefined), the IC50 is over 10 µM and the 90% effect concentration (IC90) is over 10 µM.
With `COc1ccc(-n2c(=O)c3ccccc3n3c(SCC(N)=O)nnc23)cc1`, the half-inhibitory concentration (IC50) is over 10 µM and the concentration for an effect of 90% (IC90) is over 10 µM.
Turning to `Cc1cc(C(=O)CSc2nc(N)nc(N)n2)c(C)n1CCC1=CCCCC1`, the IC50 is over 10 µM and the IC90 is over 10 µM.
For `Cc1ccc(C)c(-c2nn(CC(=O)c3cc(C)n(C)c3C)c(=O)c3ccccc23)c1`, the half-maximal inhibitory concentration (IC50) is over 10 µM and the concentration for an effect of 90% (IC90) was over 10 µM.
For the molecule `CN(C)C(=O)CN(C)S(=O)(=O)/C=C/c1ccccc1`, the half-maximal inhibitory concentration (IC50) is over 10 µM and the IC90 is over 10 µM.
On to `COc1ccc(OC)c(NC(=O)c2cc(-c3ccccc3)nn2-c2ccccc2)c1`, for which the IC50 was over 10 µM and the IC90 was over 10 µM.
For the molecule `O=C(CN1CCN(C(=O)CCc2cnn(-c3ccccc3)c2)CC1)NC1CC1`, the IC50 is over 10 µM and the 90% effect concentration (IC90) was over 10 µM.
Turning to `CC(=O)NCCCc1ccc(C(=O)Cn2cc(C(F)(F)F)ccc2=O)cc1`, the half-maximal inhibitory concentration (IC50) is over 10 µM and the IC90 was over 10 µM.
Turning to `O=C(NC1CCCc2ccccc21)c1cc(Cl)nc(Cl)c1` (centres undefined), the 50% inhibitory concentration (IC50) is over 10 µM and the concentration for an effect of 90% (IC90) is over 10 µM.
`Cc1ccc(-n2c(C)nnc2SCCCc2nc(-c3ccccc3)no2)cc1`: the half-maximal inhibitory concentration (IC50) was over 10 µM and the IC90 is over 10 µM.
As to `CC(Sc1nc(-c2ccccc2)c(-c2ccccc2)o1)C(=O)N1CCNC1=O` (centres undefined), the IC50 is over 10 µM and the IC90 was over 10 µM.
As for `CCNc1nnc(SCc2nc(-c3cccs3)no2)s1`, the concentration for half-maximal inhibition (IC50) was over 10 µM and the concentration for an effect of 90% (IC90) was over 10 µM.
Turning to `Cc1ccc(C(=O)CCC(=O)NCc2ccccc2)s1`, the half-inhibitory concentration (IC50) was over 10 µM and the 90% effect concentration (IC90) was over 10 µM.
`CCNc1nnc(SCC(=O)N2CCNC2=O)s1`: the concentration for half-maximal inhibition (IC50) was over 10 µM and the IC90 was over 10 µM.
On to `O=C(CCc1cccnc1)Nc1nc(-c2ccc3c(c2)OCCO3)cs1`, for which the IC50 is over 10 µM and the concentration for an effect of 90% (IC90) was over 10 µM.
Turning to `C=CCN(C(=O)c1cc(C2CC2)nc2ccccc12)c1nc2c(s1)CCCC2`, the half-maximal inhibitory concentration (IC50) was over 10 µM and the concentration for an effect of 90% (IC90) is over 10 µM.
`CC(=O)c1c(C)[nH]c(C(=O)CN(C)Cc2ccc(C(C)(C)C)cc2)c1C`: the concentration for half-maximal inhibition (IC50) is over 10 µM and the IC90 is over 10 µM.
`O=C1COc2ccc(-c3csc(Nc4ccccc4C(F)(F)F)n3)cc2N1`: the half-inhibitory concentration (IC50) worked out at 5.54 µM and the 90% effect concentration (IC90) is over 10 µM.
The like results for `O=C(NCCN1CCN(c2ncnc3sc4c(c23)CCC4)CC1)c1ccco1` were, in that order, over 10 µM and over 10 µM.
In the case of `Cc1ccc(-c2nc3nc(N)n(C)c(=O)c3[nH]c2=O)cc1`, the IC50 is over 10 µM and the IC90 is over 10 µM.
`CCn1c(NC(=O)c2cccnc2Oc2ccccc2)nc2ccccc21`: the IC50 is over 10 µM and the IC90 was over 10 µM.
For the molecule `Cc1nnc(NC(=O)c2ccc3c(c2)SC2=NS(=O)(=O)CCN23)s1`, the 50% inhibitory concentration (IC50) is over 10 µM and the IC90 is over 10 µM.
For the molecule `C#CCNS(=O)(=O)c1cccc(C(=O)Nc2nc(C)c(C)s2)c1`, the IC50 was over 10 µM and the IC90 was over 10 µM.
For `CC(C)(C)C(=O)COC(=O)c1ccc(-c2ccc(O)cc2)cc1`, the half-maximal inhibitory concentration (IC50) is over 10 µM and the IC90 is over 10 µM.
Turning to `CCOC(=O)C1=C(CN(C)C2CCCCC2)NC(=O)NC1`, the 50% inhibitory concentration (IC50) is over 10 µM and the concentration for an effect of 90% (IC90) was over 10 µM.
As for `Cc1cc(C(C)(C)C)cc(C)c1CCN1C(=O)CSC1c1cccnc1` (centres undefined), the half-maximal inhibitory concentration (IC50) is over 10 µM and the IC90 was over 10 µM.
In the case of `Cc1ccc(Oc2ccc(S(=O)(=O)NCCN(C)C)cc2)cc1`, the half-maximal inhibitory concentration (IC50) was over 10 µM and the 90% effect concentration (IC90) was over 10 µM.
As to `COC(=O)c1c(C)[nH]c(C(=O)CSc2nnc(C)s2)c1C`, the IC50 is over 10 µM and the concentration for an effect of 90% (IC90) is over 10 µM.
Regarding `COCCCn1c(SCC(=O)NC(=O)Nc2ccccc2)n[nH]c1=O`, the IC50 is over 10 µM and the IC90 was over 10 µM.
Consider `CCCN1CCN(c2c3ccc(Cl)cc3nc3ccc(OC)cc23)CC1`, for which the half-inhibitory concentration (IC50) is over 10 µM and the IC90 is over 10 µM.
As to `CC(C)CNC(=O)NC(=O)COC(=O)c1c2c(nc3ccccc13)CCCCC2`, the IC50 was determined as 3.9 µM and the IC90 turned out to be 7.96 µM.
The matching figures for `CCC(Sc1nnc(-c2ccccc2F)[nH]1)C(=O)Nc1ccccc1` (centres undefined): over 10 µM and over 10 µM.
The like results for `O=C(CCc1nc2ccccc2s1)N(Cc1ccccc1F)C1CC1` were, in that order, over 10 µM and over 10 µM.
Take `Cc1ccc2c(Cl)cc(Cl)c(OCC(=O)NC3CCCCC3C)c2n1` (centres undefined): the IC50 is over 10 µM and the IC90 is over 10 µM.
In the case of `COC(=O)c1cc(CNC(=O)c2ccccc2O)ccc1OC`, the 50% inhibitory concentration (IC50) is over 10 µM and the 90% effect concentration (IC90) was over 10 µM.
As for `Cc1cccc(-n2c(SC(C)C(N)=O)nc3ccccc3c2=O)n1` (centres undefined), the IC50 is over 10 µM and the 90% effect concentration (IC90) was over 10 µM.
As to `O=C(CN1CCN(C(=O)CN2C(=O)NC3(CCCC3)C2=O)CC1)N1CCCC1`, the concentration for half-maximal inhibition (IC50) is over 10 µM and the IC90 was over 10 µM.
For `O=C(COc1ccccc1-c1ccccc1)NCC1CCCCC1`, the IC50 was over 10 µM and the 90% effect concentration (IC90) was over 10 µM.
Consider `Cn1cnnc1SCC(=O)NC(Cc1c[nH]c2ccccc12)C(=O)O` (centres undefined), for which the IC50 is over 10 µM and the IC90 is over 10 µM.
`O=C(CN1CCN(Cc2nc3ccccc3s2)CC1)N1CCc2ccccc21`: the IC50 is over 10 µM and the IC90 is over 10 µM.
In the case of `CCn1c(SCc2nc3ccccc3c(=O)n2CC(N)=O)nnc1C1CC1`, the IC50 is over 10 µM and the IC90 is over 10 µM.
As to `O=C(OCc1cccc(Cl)c1)c1cncn1-c1ccccc1`, the half-maximal inhibitory concentration (IC50) is over 10 µM and the IC90 is over 10 µM.
As for `Cc1c(C(=O)Nc2ncc(Cc3ccccc3)s2)[nH]c2c1C(=O)CC(C)(C)C2`, the IC50 is over 10 µM and the IC90 was over 10 µM.
Take `O=c1nc(CN2CCN(c3ccc(C(F)(F)F)cn3)CC2)[nH]c2ccccc12`: the half-inhibitory concentration (IC50) is over 10 µM and the IC90 is over 10 µM.
With `Cc1nn(Cc2nnc(-c3ccco3)o2)c(C)c1S(=O)(=O)N1CCCCC1`, the half-maximal inhibitory concentration (IC50) was over 10 µM and the 90% effect concentration (IC90) was over 10 µM.
Take `O=C(COC(=O)CNS(=O)(=O)/C=C/c1ccccc1)NC1CCCCC1`: the concentration for half-maximal inhibition (IC50) was over 10 µM and the IC90 is over 10 µM.
As to `CC(C)c1ccc(-c2nnc(NC(=O)c3cn4ccccc4n3)s2)cc1`, the IC50 was determined as 9.54 µM and the IC90 is over 10 µM.
As to `CCc1nn2c(=O)cc(CSc3nnc(-c4cc(C)cc(C)c4)o3)nc2s1`, the IC50 is over 10 µM and the IC90 is over 10 µM.
With `CCOC(=O)c1sc(N)c(C#N)c1COC(=O)c1c(CC)noc1C`, the 50% inhibitory concentration (IC50) stood at 0.244 µM and the 90% effect concentration (IC90) was found to be 0.249 µM.
The like results for `O=C(Nc1nc2ccccc2[nH]1)c1oc2ccccc2c1COc1ccccc1` were, in that order, over 10 µM and over 10 µM.
As for `COC(=O)c1cc(-c2ccc(C)cc2)nc2onc(C(C)C)c12`, the IC50 is over 10 µM and the IC90 was over 10 µM.
`CC(C)(C)C(=O)CSc1nnc(-c2ccccc2F)[nH]1`: the 50% inhibitory concentration (IC50) is over 10 µM and the IC90 was over 10 µM.
In the case of `Cn1c(N)c(N2CCNCC2)c(=O)n(C)c1=O`, the concentration for half-maximal inhibition (IC50) was over 10 µM and the 90% effect concentration (IC90) was over 10 µM.
For the molecule `C#CC(CC)(CC)NC(=O)CSc1nc(C)nc2sc3c(c12)CCC3`, the IC50 was over 10 µM and the IC90 was over 10 µM.
With `CCNC(=O)NC(=O)C(c1ccccc1)n1nc(C(=O)O)c2ccccc2c1=O` (centres undefined), the IC50 was over 10 µM and the concentration for an effect of 90% (IC90) is over 10 µM.
As for `Cc1csc(=O)n1CC(=O)Nc1cccc2ccccc12`, the half-maximal inhibitory concentration (IC50) was over 10 µM and the 90% effect concentration (IC90) is over 10 µM.
`Cc1cc(=O)[nH]c(SCC(=O)c2cc(C)n(-c3ccccc3)c2C)c1C#N`: the half-inhibitory concentration (IC50) is over 10 µM and the IC90 is over 10 µM.

A word on the IC50: it is the concentration needed to halve the response being measured. A word on the IC90: it is the concentration needed for an effect of 90%.
